Patent US20220306647A1, “NOVEL INDOLE-2-CARBOXAMIDES ACTIVE AGAINST THE HEPATITUS B VIRUS (HBV)” (AICURIS GMBH & CO. KG, priority 2019, published 2022)

Legend:
HBV (HepAD38 cells) = experiment: HBV replication assay: determination of HBV DNA from the supernatants of HepAD38 cells; type: cell-based; conditions: Hepatitis B virus, 144 h, HBV DNA in HepAD38 supernatant at day 6, qPCR, read-out: Cell activity
Method: Determination of HBV DNA from the Supernatants of HepAD38 Cells
The anti-HBV activity was analysed in the stable transfected cell line HepAD38, which has been described to secrete high levels of HBV virion particles (Ladner et al., 1997). In brief, HepAD38 cells were cultured at 37° C. at 5% CO2 and 95% humidity in 200 μl maintenance medium, which was Dulbecco's modified Eagle's medium/Nutrient Mixture F-12 (Gibco, Karlsruhe), 10% fetal bovine serum (PAN Biotech Aidenbach) supplemented with 50 μg/ml penicillin/streptomycin (Gibco, Karlsruhe), 2 mM L-glutamine (PAN Biotech, Aidenbach), 400 μg/ml G418 (AppliChem, Darmstadt) and 0.3 μg/ml tetracycline. Cells were subcultured once a week in a 1:5 ratio, but were usually not passaged more than ten times. For the assay 60,000 cells were seeded in maintenance medium without any tetracycline into each well of a 96-well plate and treated with serial half-log dilutions of test compound. To minimize edge effects the outer 36 wells of the plate were not used but were filled with assay medium. On each assay plate six wells for the virus control (untreated HepAD38 cells) and six wells for the cell control (HepAD38 cells treated with 0.3 μg/ml tetracycline) were allocated, respectively. In addition, one plate set with reference inhibitors like BAY 41-4109, entecavir, and lamivudine instead of screening compounds were prepared in each experiment. In general, experiments were performed thrice in triplicates. At day 6 HBV DNA from 100 μl filtrated cell culture supernatant (AcroPrep Advance 96 Filter Plate, […] Supor membran, PALL GmbH, Dreieich) was automatically purified on the MagNa Pure LC instrument using the MagNA Pure 96 DNA and Viral NA Small Volume Kit (Roche Diagnostics, Mannheim) according to the instructions of the manufacturer. EC50 values were calculated from relative copy numbers of HBV DNA In brief, 5 μl of the 100 μl eluate containing HBV DNA were subjected to PCR LC480 Probes Master Kit (Roche) together with 1 μM antisense primer […], 0.5 μM sense primer […], 0.3 μM hybprobes […]-FL and LC640-[…]-PH (TIBMolBiol, Berlin) to a final volume of 12.5 μl. The PCR was performed on the Light Cycler 480 real time system (Roche Diagnostics, Mannheim) using the following protocol: Pre-incubation for 1 min at 95° C., amplification: 40 cycles×(10 sec at 95° C., 50 sec at 60° C., 1 sec at 70° C.), cooling for 10 sec at 40° C. Viral load was quantitated against known standards using HBV plasmid DNA of pCH-9/3091 (Nassal et al., 1990, Cell 63: 1357-1363) and the LightCycler 480 SW 1.5 software (Roche Diagnostics, Mannheim) and EC50 values were calculated using non-linear regression with GraphPad Prism 6 (GraphPad Software Inc., La Jolla, USA).

[1] = biological target: T1, HBV core protein (C-terminal truncated core protein, 149 amino acids of the N-terminal assembly domain, BODIPY-FL labelled) (UniProt P03146); experiment: Biochemical capsid assembly assay (fluorescence quenching); conditions: assembly started with NaCl, fluorescence read after 6 min, read-out: Assembly activity
T1 construct: fused on or other part: A single cysteine added after residue 149, at position 150; It carries the BODIPY-FL maleimide label
T1 sequence (P03146 whole entry, the tested form may be a part): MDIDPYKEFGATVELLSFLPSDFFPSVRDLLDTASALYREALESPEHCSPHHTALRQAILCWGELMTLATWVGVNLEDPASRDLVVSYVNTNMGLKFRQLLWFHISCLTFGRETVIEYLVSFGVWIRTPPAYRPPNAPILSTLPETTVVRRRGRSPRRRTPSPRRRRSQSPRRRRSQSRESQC
Method: The screening for assembly effector activity was done based on a fluorescence quenching assay published by Zlotnick et al. (2007). The C-terminal truncated core protein containing 149 amino acids of the N-terminal assembly domain fused to a unique cysteine residue at position 150 and was expressed in E. coli using the pET expression system (Merck Chemicals, Darmstadt). Purification of core dimer protein was performed using a sequence of size exclusion chromatography steps. In brief, the cell pellet from 1 L BL21 (DE3) Rosetta2 culture expressing the coding sequence of core protein cloned NdeI/XhoI into expression plasmid pET21b was treated for 1 h on ice with a native lysis buffer (Qproteome Bacterial Protein Prep Kit; Qiagen, Hilden). After a centrifugation step the supernatant was precipitated during 2 h stirring on ice with 0.23 g/ml of solid ammonium sulfate. Following further centrifugation the resulting pellet was resolved in buffer A (100 mM Tris, pH 7.5; 100 mM NaCl; 2 mM DTT) and was subsequently loaded onto a buffer A equilibrated CaptoCore 700 column (GE HealthCare, Frankfurt). The column flow through containing the assembled HBV capsid was dialyzed against buffer N (50 mM NaHCO3 pH 9.6; 5 mM DTT) before urea was added to a final concentration of 3M to dissociate the capsid into core dimers for 1.5 h on ice. The protein solution was then loaded onto a 1L Sephacryl S300 column. After elution with buffer N core dimer containing fractions were identified by SDS-PAGE and subsequently pooled and dialyzed against 50 mM HEPES pH 7.5; 5 mM DTT. To improve the assembly capacity of the purified core dimers a second round of assembly and disassembly starting with the addition of 5 M NaCl and including the size exclusion chromatography steps described above was performed. From the last chromatography step core dimer containing fractions were pooled and stored in aliquots at concentrations between 1.5 to 2.0 mg/ml at −80° C.
Immediately before labelling the core protein was reduced by adding freshly prepared DTT in a final concentration of 20 mM. After 40 min incubation on ice storage buffer and DTT was removed using a Sephadex G-25 column (GE HealthCare, Frankfurt) and 50 mM HEPES, pH 7.5. For labelling 1.6 mg/ml core protein was incubated at 4° C. and darkness overnight with BODIPY-FL maleimide (Invitrogen, Karlsruhe) in a final concentration of 1 mM. After labelling the free dye was removed by an additional desalting step using a Sephadex G-25 column. Labelled core dimers were stored in aliquots at 4° C. In the dimeric state the fluorescence signal of the labelled core protein is high and is quenched during the assembly of the core dimers to high molecular capsid structures. The screening assay was performed in black 384 well microtiter plates in a total assay volume of 10 μl using 50 mM HEPES pH 7.5 and 1.0 to 2.0 μM labelled core protein. Each screening compound was added in 8 different concentrations using a 0.5 log-unit serial dilution starting at a final concentration of 100 μM, 31.6 μM or 10 μM, In any case the DMSO concentration over the entire microtiter plate was 0.5%. The assembly reaction was started by the injection of NaCl to a final concentration of […] which induces the assembly process to approximately 25% of the maximal quenched signal. 6 min after starting the reaction the fluorescence signal was measured using a Clariostar plate reader (BMG Labtech, Ortenberg) with an excitation of 477 nm and an emission of 525 nm. As 100% and 0% assembly control HEPES buffer containing 2.5 M and 0 M NaCl was used. Experiments were performed thrice in triplicates. EC50 values were calculated by non-linear regression analysis using the Graph Pad Prism 6 software (GraphPad Software, La Jolla, USA).

With `O=C(c1cc2ccccc2[nH]1)N1CCc2onc(C(=O)N3CCCC34CC4)c2C1` [Example 1, 2-(3-{4-azaspiro[2.4]heptane-4-carbonyl}-4H,5H,6H,7H-[1,2]oxazolo[4,5-c]pyridine-5-carbonyl)-1H-indole] the EC50 (HBV (HepAD38 cells)) was 1 to 10 µM.

For `CN(C(=O)c1noc2c1CN(C(=O)c1cc3ccccc3[nH]1)CC2)C1(c2cocn2)CC1` [Example 2, 5-(1H-indole-2-carbonyl)-N-methyl-N-[1-(1,3-oxazol-4-yl)cyclopropyl]-4H,5H,6H,7H-[1,2]oxazolo[4,5-c]pyridine-3-carboxamide], the IC50 [1] was < 5 µM and the EC50 (HBV (HepAD38 cells)) was < 1 µM.

`CCc1cc(F)cc2[nH]c(C(=O)N3CCc4onc(C(=O)N(C)C5(COC)CC5)c4C3)cc12` [Example 4, 5-(4-ethyl-6-fluoro-1H-indole-2-carbonyl)-N-[1-(methoxymethyl)cyclopropyl]-N-methyl-4H,5H,6H,7H-[1,2]oxazolo[4,5-c]pyridine-3-carboxamide] was tested, and the IC50 [1] was < 5 µM and the EC50 (HBV (HepAD38 cells)) was < 1 µM.

In the case of `COCC1(N(C)C(=O)c2noc3c2CN(C(=O)c2cc4c(Cl)cccc4[nH]2)CC3)CC1` [Example 5, 5-(4-chloro-1H-indole-2-carbonyl)-N-[1-(methoxymethyl)cyclopropyl]-N-methyl-4H,5H,6H,7H-[1,2]oxazolo[4,5-c]pyridine-3-carboxamide], the IC50 [1] is reported as < 5 µM and the EC50 (HBV (HepAD38 cells)) is reported as < 1 µM.

In the case of `COCC1(N(C)C(=O)c2noc3c2CN(C(=O)c2cc4c(F)cc(F)cc4[nH]2)CC3)CC1` [Example 6, 5-(4,6-difluoro-1H-indole-2-carbonyl)-N-[1-(methoxymethyl)cyclopropyl]-N-methyl-4H,5H,6H,7H-[1,2]oxazolo[4,5-c]pyridine-3-carboxamide], the IC50 [1] is reported as < 5 µM and the EC50 (HBV (HepAD38 cells)) is reported as < 1 µM.

For `COCC1(N(C)C(=O)c2noc3c2CN(C(=O)c2cc4ccccc4[nH]2)CC3)CC1` [Example 7, 5-(1H-indole-2-carbonyl)-N-[1-(methoxymethyl)cyclopropyl]-N-methyl-4H,5H,6H,7H-[1,2]oxazolo[4,5-c]pyridine-3-carboxamide], the IC50 [1] was < 5 µM and the EC50 (HBV (HepAD38 cells)) was < 1 µM.

With `CN(C(=O)c1noc2c1CN(C(=O)c1cc3ccccc3[nH]1)CC2)C1(CO)CC1` [Example 8, N-[I1-(hydroxymethyl)cyclopropyl]-5-(1H-indole-2-carbonyl)-N-methyl-4H,5H,6H,7H-[1,2]oxazolo[4,5-c]pyridine-3-carboxamide] the IC50 [1] was < 5 µM and the EC50 (HBV (HepAD38 cells)) was < 1 µM.

With `CN(C(=O)c1noc2c1CN(C(=O)c1cc3ccccc3[nH]1)CC2)C1(COC(=O)c2ccccc2)CC1` [Example 9, {1-[N-methyl-5-(1H-indole-2-carbonyl)-4H,5H,6H,7H-[1,2]oxazolo[4,5-c]pyridine-3-amido]cyclopropyl}methyl benzoate] the EC50 (HBV (HepAD38 cells)) was < 1 µM.

`O=C(NC1CC1)c1noc2c1CN(C(=O)c1cc3ccccc3[nH]1)CC2` [Example 10, N-cyclopropyl-5-(1H-indole-2-carbonyl)-4H,5H,6H,7H-[1,2]oxazolo[4,5-c]pyridine-3-carboxamide] was tested, and the IC50 [1] was < 5 µM and the EC50 (HBV (HepAD38 cells)) was < 100 µM.

With `CN(C(=O)c1noc2c1CN(C(=O)c1cc3ccccc3[nH]1)CC2)C1CC1` [Example 11, N-cyclopropyl-5-(1H-indole-2-carbonyl)-N-methyl-4H,5H,6H,7H-[1,2]oxazolo[4,5-c]pyridine-3-carboxamide] the IC50 [1] was < 5 µM and the EC50 (HBV (HepAD38 cells)) was < 100 µM.

With `CN(C(=O)c1cnn2c1CN(C(=O)c1cc3ccccc3[nH]1)CC2)C1(c2ccc(C(=O)O)cc2)CC1` [Example 12, 4-{1-[N-methyl-5-(1H-indole-2-carbonyl)-4H,5H,6H,7H-pyrazolo[1,5-a]pyrazine-3-amido]cyclopropyl}benzoic acid] the IC50 [1] was < 5 µM and the EC50 (HBV (HepAD38 cells)) was < 1 µM.

With `CN(C(=O)c1cnn2c1CN(C(=O)c1cc3ccccc3[nH]1)CC2)C1(c2cccc(C(=O)O)c2)CC1` [Example 13, 3-{1-[N-methyl-5-(1H-indole-2-carbonyl)-4H,5H,6H,7H-pyrazolo[1,5-a]pyrazine-3-amido]cyclopropyl}benzoic acid] the IC50 [1] was < 5 µM and the EC50 (HBV (HepAD38 cells)) was 1 to 10 µM.

With `CN1C(=O)c2c3c(nn2CC12CC2)CCN(C(=O)c1cc2ccccc2[nH]1)C3` [Example 14, 12′-(1H-indole-2-carbonyl)-4′-methyl-4′,7′,8′,12′-tetraazaspiro[cyclopropane-1,5′-tricyclo[7.4.0.0^2′7]tridecane]-1′,8′-dien-3′-one] the IC50 [1] was < 5 µM and the EC50 (HBV (HepAD38 cells)) was < 1 µM.

`CN1C(=O)c2c3c(nn2CC12CC2)CCN(C(=O)c1cc2cc(F)c(Cl)cc2[nH]1)C3` [Example 15, 12′-(6-chloro-5-fluoro-1H-indole-2-carbonyl)-4′-methyl-4′,7′,8′,12′-tetraazaspirol[cyclopropane-1,5′-tricyclo[7.4.0.0^2′7]tridecane]-1′,8′-dien-3′-one] was tested, and the IC50 [1] was < 5 µM and the EC50 (HBV (HepAD38 cells)) was < 1 µM.

In the case of `Cc1cccc2[nH]c(C(=O)N3CCc4nn5c(c4C3)C(=O)N(C)C3(CC3)C5)cc12` [Example 16, 4′-methyl-12′-(4-methyl-1H-indole-2-carbonyl)-4′,7′,8′,12′-tetraazaspiro[cyclopropane-1,5′-tricyclo[7.4.0.0^2′7]tridecane]-1′,8′-dien-3′-one], the IC50 [1] is reported as < 5 µM and the EC50 (HBV (HepAD38 cells)) is reported as < 1 µM.

`O=C(c1cc2ccccc2[nH]1)N1CCc2onc(C(=O)N3CCC(F)(F)C3)c2C1` [Example 25, 2-[3-(3,3-difluoropyrrolidine-1-carbonyl)-4H,5H,6H,7H-[1,2]oxazolo[4,5-c]pyridine-5-carbonyl]-1H-indole] was tested, and the EC50 (HBV (HepAD38 cells)) was 1 to 10 µM.
